Experimental data as given in US11214565B2, “Compound, compositions, and methods” (Denali Therapeutics Inc., priority 2015, dated 2022).

Molecular target: LRRK2 G2019S enzyme (Homo sapiens (Human), UniProt Q5S007, G2019S)
Assay: LRRK2 G2019S TR-FRET biochemical kinase assay (LRRKtide substrate)
Settings: Table A-2; 5 nM LRRK2, 134 μM ATP, 60 minute reaction, 23° C.
Method in brief: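 TR-FRET phospho-LRRKtide readout (2 nM antibody, 10 mM EDTA, 60 min) after a 60 min, 23 °C kinase reaction. The reaction used 134 μM ATP and 5 nM enzyme in pH 7.5 Tris/MgCl2/EGTA/DTT buffer, with compound and enzyme-substrate mix preincubated for 20 min beforehand.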

LRRK2 G2019S enzyme, sequence (Q5S007 whole entry G2019S): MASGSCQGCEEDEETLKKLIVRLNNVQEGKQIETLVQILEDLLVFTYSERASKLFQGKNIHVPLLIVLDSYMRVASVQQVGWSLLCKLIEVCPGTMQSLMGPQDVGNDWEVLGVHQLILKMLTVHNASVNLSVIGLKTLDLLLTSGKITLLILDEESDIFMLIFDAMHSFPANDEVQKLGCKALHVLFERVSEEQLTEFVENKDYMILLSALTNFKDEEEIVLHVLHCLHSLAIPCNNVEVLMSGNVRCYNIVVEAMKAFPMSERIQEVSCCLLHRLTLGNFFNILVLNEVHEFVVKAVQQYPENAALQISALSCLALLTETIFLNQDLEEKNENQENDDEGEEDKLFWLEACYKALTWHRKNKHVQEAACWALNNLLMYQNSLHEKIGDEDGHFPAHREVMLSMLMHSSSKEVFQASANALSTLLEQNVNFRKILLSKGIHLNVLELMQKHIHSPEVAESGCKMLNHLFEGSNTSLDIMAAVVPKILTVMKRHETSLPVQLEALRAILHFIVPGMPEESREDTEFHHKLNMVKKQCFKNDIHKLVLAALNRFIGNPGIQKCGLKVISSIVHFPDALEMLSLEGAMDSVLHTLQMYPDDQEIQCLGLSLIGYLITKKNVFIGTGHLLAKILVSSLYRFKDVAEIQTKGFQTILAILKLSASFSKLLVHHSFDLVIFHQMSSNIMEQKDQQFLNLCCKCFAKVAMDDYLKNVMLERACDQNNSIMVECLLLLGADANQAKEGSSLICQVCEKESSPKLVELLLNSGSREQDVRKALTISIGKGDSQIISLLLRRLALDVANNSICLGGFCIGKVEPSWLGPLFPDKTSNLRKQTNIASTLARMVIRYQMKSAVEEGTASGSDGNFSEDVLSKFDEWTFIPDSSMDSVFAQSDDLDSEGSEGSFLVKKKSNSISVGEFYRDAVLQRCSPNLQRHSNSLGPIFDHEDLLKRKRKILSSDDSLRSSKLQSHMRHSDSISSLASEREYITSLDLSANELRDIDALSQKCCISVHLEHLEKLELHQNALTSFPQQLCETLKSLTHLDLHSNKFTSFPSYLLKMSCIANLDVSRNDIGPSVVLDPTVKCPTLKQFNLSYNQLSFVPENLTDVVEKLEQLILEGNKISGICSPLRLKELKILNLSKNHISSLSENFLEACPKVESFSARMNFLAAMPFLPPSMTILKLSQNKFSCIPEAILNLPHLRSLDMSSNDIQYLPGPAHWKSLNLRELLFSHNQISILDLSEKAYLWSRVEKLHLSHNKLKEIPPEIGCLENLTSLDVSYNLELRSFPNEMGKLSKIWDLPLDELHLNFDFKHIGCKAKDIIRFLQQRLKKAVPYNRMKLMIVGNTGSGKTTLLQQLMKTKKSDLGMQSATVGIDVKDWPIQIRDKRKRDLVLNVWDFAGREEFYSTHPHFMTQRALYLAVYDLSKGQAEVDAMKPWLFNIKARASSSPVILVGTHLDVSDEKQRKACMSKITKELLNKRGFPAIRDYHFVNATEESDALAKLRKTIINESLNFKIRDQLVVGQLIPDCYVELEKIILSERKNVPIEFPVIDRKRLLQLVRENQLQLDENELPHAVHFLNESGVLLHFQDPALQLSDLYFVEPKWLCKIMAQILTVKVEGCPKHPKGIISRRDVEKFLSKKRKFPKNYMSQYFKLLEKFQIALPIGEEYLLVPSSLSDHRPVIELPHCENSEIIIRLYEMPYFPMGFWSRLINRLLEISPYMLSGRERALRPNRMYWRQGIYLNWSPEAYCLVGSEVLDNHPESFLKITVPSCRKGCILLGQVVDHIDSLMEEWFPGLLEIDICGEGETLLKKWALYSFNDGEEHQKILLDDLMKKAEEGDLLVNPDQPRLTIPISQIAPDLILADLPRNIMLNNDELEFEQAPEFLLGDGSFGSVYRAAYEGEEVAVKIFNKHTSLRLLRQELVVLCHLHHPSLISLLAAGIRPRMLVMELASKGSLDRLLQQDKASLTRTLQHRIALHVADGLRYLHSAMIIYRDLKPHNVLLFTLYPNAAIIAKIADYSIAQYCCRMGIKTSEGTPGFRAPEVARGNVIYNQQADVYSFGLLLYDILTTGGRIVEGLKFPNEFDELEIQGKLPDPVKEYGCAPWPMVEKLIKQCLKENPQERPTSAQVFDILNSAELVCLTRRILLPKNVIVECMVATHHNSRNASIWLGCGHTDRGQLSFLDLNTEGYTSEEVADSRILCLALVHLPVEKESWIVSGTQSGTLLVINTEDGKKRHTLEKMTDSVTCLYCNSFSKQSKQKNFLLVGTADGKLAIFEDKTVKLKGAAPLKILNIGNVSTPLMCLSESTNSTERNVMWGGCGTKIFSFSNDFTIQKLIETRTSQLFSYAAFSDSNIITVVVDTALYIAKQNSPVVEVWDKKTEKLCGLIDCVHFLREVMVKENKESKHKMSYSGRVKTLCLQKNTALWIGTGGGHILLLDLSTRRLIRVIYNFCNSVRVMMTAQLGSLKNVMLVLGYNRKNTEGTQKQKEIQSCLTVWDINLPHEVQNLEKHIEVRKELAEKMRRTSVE

IC50 [nM] | Structure (SMILES)
< 30 | Cc1c(Nc2ncc(C(F)(F)F)c(C3CC3)n2)cnn1[C@@H]1CCc2cn[nH]c21 [Compounds A-84]
< 30 | Cc1nn([C@@H]2CCNC2=O)cc1Nc1ncc(C(F)(F)F)c(C2CC2)n1 [Compounds A-85]
< 30 | Cc1nn([C@H]2CCNC2=O)cc1Nc1ncc(C(F)(F)F)c(C2CC2)n1 [Compounds A-86]
< 30 | Cc1nn([C@@H]2CCc3cn[nH]c32)cc1Nc1ncc(C(F)(F)F)c(C2CC2)n1 [Compounds A-89]
< 30 | Cc1nn([C@H]2CCc3cn[nH]c32)cc1Nc1ncc(C(F)(F)F)c(C2CC2)n1 [Compounds A-90]
30 to 60 | Cc1c(Nc2ncc(C(F)(F)F)c(C3CC3)n2)cnn1[C@H]1CCNC1=O [Compounds A-91]
< 30 | Cc1c(Nc2ncc(C(F)(F)F)c(C3CC3)n2)cnn1[C@H]1CCc2cn[nH]c21 [Compounds A-92]
< 30 | Cc1nn([C@@]2(C)CCNC2=O)cc1Nc1ncc(C(F)(F)F)c(C2CC2)n1 [Compounds A-94]
< 30 | Cc1nn([C@]2(C)CCNC2=O)cc1Nc1ncc(C(F)(F)F)c(C2CC2)n1 [Compounds A-95]
< 30 | Cc1nn([C@@](C)(C(N)=O)C(F)F)cc1Nc1ncc(C(F)(F)F)c(C2CC2)n1 [Compounds A-96]
30 to 60 | Cc1nn([C@](C)(C(N)=O)C(F)F)cc1Nc1ncc(C(F)(F)F)c(C2CC2)n1 [Compounds A-97]

Same assay, conditions: Table D-4; 5 nM LRRK2, 134 μM ATP, 60 minute reaction, 23° C.

IC50 [nM] | Structure (SMILES)
< 30 | CNc1nc(Nc2cnn([C@H]3C[C@H](n4cc(F)cn4)C3)c2C)ncc1Br [Compound D-193]
< 30 | CCNc1nc(Nc2cnn([C@H]3C[C@@H](N4CCN(C)CC4)C3)c2C)ncc1C(F)(F)F [Compound D-194]
< 30 | CCNc1nc(Nc2cnn([C@H]3C[C@H](N4CC[C@H](F)C4)C3)c2C)ncc1C(F)(F)F [Compound D-195]
< 30 | CCNc1nc(Nc2cnn([C@H]3C[C@@H](N4CC[C@H](F)C4)C3)c2C)ncc1C(F)(F)F [Compound D-196]
< 30 | CCNc1nc(Nc2cnn([C@H]3C[C@H](N4CC[C@@H](F)C4)C3)c2C)ncc1C(F)(F)F [Compound D-197]
< 30 | CCNc1nc(Nc2cnn([C@H]3C[C@@H](N4CC[C@@H](F)C4)C3)c2C)ncc1C(F)(F)F [Compound D-198]
< 30 | CCNc1nc(Nc2cn(C(C)(C#N)CF)nc2C)ncc1C(F)(F)F [Compound D-203]
< 30 | CCNc1nc(Nc2cn(C(C#N)(CF)CF)nc2C)ncc1C(F)(F)F [Compound D-204]
< 30 | CCNc1nc(Nc2cn([C@H]3CCc4ncsc43)nc2C)ncc1C(F)(F)F [Compounds D-86]
< 30 | CNc1nc(Nc2cn(C(C)COC(F)F)nc2C)ncc1C(F)(F)F [Compounds D-96]
< 30 | CCNc1nc(Nc2cn(C3Cc4nccn4C3)nc2C)ncc1C(F)(F)F [Compounds D-102]
< 30 | CNc1nc(Nc2cnn(C3CCC(n4nccn4)C3)c2C)ncc1C(F)(F)F [Compounds D-107]
< 30 | CNc1nc(Nc2cnn([C@@H]3CCn4cncc43)c2C)ncc1C(F)(F)F [Compounds D-121]
< 30 | CCNc1nc(Nc2cn([C@H]3CCn4nccc43)nc2C)ncc1C(F)(F)F [Compounds D-122]
< 30 | CNc1nc(Nc2cnn([C@@H]3CCC(n4nccn4)C3)c2C)ncc1C(F)(F)F (stereo partly drawn) [Compounds D-133]
< 30 | CNc1nc(Nc2cnn([C@H]3CCC(n4nccn4)C3)c2C)ncc1C(F)(F)F (stereo partly drawn) [Compounds D-134]
< 30 | CNc1nc(Nc2cnn([C@@H]3CCC(n4nccn4)C3)c2C)ncc1C(F)(F)F (stereo partly drawn) [Compounds D-141]
> 60 | COc1nc(Nc2cnn([C@H]3CCn4ccnc43)c2C)ncc1C(F)(F)F [Compounds D-142]
30 to 60 | CNc1nc(Nc2cn([C@H]3CCC(n4ccnn4)C3)nc2C)ncc1C(F)(F)F (stereo partly drawn) [Compounds D-143]
30 to 60 | CNc1nc(Nc2cnn([C@H]3CCC(n4nccn4)C3)c2C)ncc1C(F)(F)F (stereo partly drawn) [Compounds D-149]

IC50 [nM] | Structure (SMILES)
< 30 | CCNc1nc(Nc2cnn([C@H]3CCCn4ccnc43)c2C)ncc1C(F)(F)F [Compounds D-151]
< 30 | CCNc1nc(Nc2cnn([C@@H]3CCn4ccnc43)c2C)ncc1C(F)(F)F [Compounds D-152]
< 30 | CNc1nc(Nc2cnn([C@H]3CCC(n4nccn4)C3)c2C)ncc1C(F)(F)F (stereo partly drawn) [Compounds D-156]
< 30 | CCNc1nc(Nc2cn([C@H]3Cc4nccn4C3)nc2C)ncc1C(F)(F)F [Compounds D-163]
< 30 | CNc1nc(Nc2cnn([C@H]3CCn4cncc43)c2C)ncc1C(F)(F)F [Compounds D-166]
< 30 | CCNc1nc(Nc2cnn([C@H]3CCCn4ccnc43)c2C)ncc1C(F)(F)F [Compounds D-170]
< 30 | CCNc1nc(Nc2cnn([C@H]3CCc4c(C)noc43)c2C)ncc1C(F)(F)F [Compounds D-171]
< 30 | CCNc1nc(Nc2cnn([C@H]3CCn4ccnc43)c2C)ncc1C(F)(F)F [Compounds D-172]
> 60 | CNc1nc(Nc2cnn([C@@H]3CCc4c(C)noc43)c2C)ncc1C(F)(F)F [Compounds D-173]
< 30 | CNc1nc(Nc2cnn([C@H]3CCC(n4ccnn4)C3)c2C)ncc1C(F)(F)F (stereo partly drawn) [Compounds D-175]
> 60 | CNc1nc(Nc2cn(C3(C)CCn4ccnc43)nc2C)ncc1C(F)(F)F [Compounds D-188]
< 30 | CNc1nc(Nc2cn(C3(C)CCn4ccnc43)nc2C)ncc1C(F)(F)F [Compounds D-189]
< 30 | CNc1nc(Nc2cnn([C@](C)(C#N)CF)c2C)ncc1C(F)(F)F [Compounds D-190]
< 30 | CNc1nc(Nc2cnn([C@@](C)(C#N)CF)c2C)ncc1C(F)(F)F [Compounds D-191]
< 30 | CNc1nc(Nc2cnn([C@](C)(C#N)C(F)F)c2C)ncc1C(F)(F)F [Compounds D-199]
< 30 | CNc1nc(Nc2cnn([C@@](C)(C#N)C(F)F)c2C)ncc1C(F)(F)F [Compounds D-200]
< 30 | Cc1c(Nc2ncc(C(F)(F)F)c(NC3CC3)n2)cnn1[C@](C)(C#N)CF [Compounds D-201]
< 30 | Cc1c(Nc2ncc(C(F)(F)F)c(NC3CC3)n2)cnn1C(C)(C#N)CF [Compounds D-202]
> 60 | CCNc1nc(Nc2cnn([C@@]3(C)CCn4ccnc43)c2C)ncc1C(F)(F)F [Compounds D-205]
< 30 | CCNc1nc(Nc2cnn([C@]3(C)CCn4ccnc43)c2C)ncc1C(F)(F)F [Compounds D-206]
